Measurements published in patent US20040009172A1, “Use of anti-TNFalpha antibodies and another drug” (priority 2002, published 2004).

What was measured:
[1] = test system: patients with rheumatoid arthritis (RA); experiment: Multicenter, randomized, double-blind, placebo-controlled study of D2E7 in RA patients: efficacy (ACR response); assay type: in vivo, human
Procedure: (§1) A study was designed and conducted to investigate the safety and efficacy of D2E7 40 mg administered every other week to patients with RA whose disease was not adequately treated with their current anti-rheumatic therapies (including accepted DMARDs, NSAIDs, or steroids); and was a multicenter, randomized, double-blind, placebo-controlled study in which D2E7 was subcutaneously (sc) administered every other week for up to 24 weeks at a dosage of 40 mg to patients with rheumatoid arthritis (RA) whose disease was not adequately treated with their current anti-rheumatic therapies. Anti-rheumatic therapies permitted for use during the study included accepted disease-modifying anti-rheumatic drugs (DMARDs), non-steroidal anti-inflammatory drugs (NSAIDs), or steroids. Despite using anti-rheumatic therapies, patients must have had active disease documented at both the screening and baseline visits. Doses of DMARDs, as well as concomitant prednisone (<10 mg daily) and NSAIDs, were required to be stable for at least 28 days prior to screening. Additionally, patients using azathioprine and/or cyclosporine discontinued these therapies and underwent a 28-day washout period before screening. At the baseline visit, patients were randomized to D2E7 or placebo and this signified the start of the 24-week placebo-controlled period. Patients were examined at Weeks 2, 4, 8, 12, 16, 20 and 24 of the study.
Patients were inadequately treated with their current anti-rheumatic therapies and had active RA, defined as ≧6 swollen joints and ≧9 tender joints. Additionally, patients using glucocorticoids were allowed into the study if the dose was equivalent to ≦10 mg/day prednisone and had remained unchanged for at least 28 days.
D2E7 was supplied in 2-mL glass vials (the concentration of D2E7 in each vial was 25 mg/mL (ie, 40 mg/1.6 mL)), each containing 40 mg D2E7/1.6 mL solution for injection. D2E7 was manufactured and supplied by Ebewe Arzneimittel GmbH, in Unterach, Austria. McKesson, FIBOC Biosciences, in Rockville, Md., USA, packaged, labeled, stored and distributed D2E7 to the investigators at, each site for this study. D2E7 was self-administered as a single sc injection of 40 mg every other week for a period of 24 weeks. The concentration of study drug was 25 mg/mL. Placebo/1.6 mL (citrate-phosphate buffer solution without D2E7) was self-administered as a single sc injection every other week for a period of 24 weeks.
Patients continued to receive their pre-study dose of anti-rheumatic therapies. Anti-rheumatic therapies permitted for use during the study included DMARDs (hydroxychloroquine, leflunomide, methotrexate, parenteral gold, oral gold and sulfasalazine, or any combination of these or other DMARDs), NSAIDs and steroids. Doses of these DMARDs as well as concomitant prednisone (≦10 mg daily) and NSAIDs must have been stable for at least 28 days prior to screening.
Efficacy endpoints included: ACR20 response at Week 24; ACR50 and ACR70 at Week 24; AUC (area under the curve) of ACR20, ACR50 and ACR70 from baseline to Week 24; time to first response for ACR20, ACR50 and ACR70; numeric ACR (ACR-N); change from baseline to Week 24 in components of the ACR response criteria (tender joint count [TJC], swollen joint count [SJC], patient assessment of pain, patient and physician global assessments of disease activity, HAQ and C-reactive protein [CRP]); change from baseline to Week 24 in physical function as measured by SF-36, health utilities index (HUI), functional assessment of chronic illness therapy (FACIT) fatigue scale; Euro-QoL questionnaire; multidimensional assessment of fatigue (MAF) scale; subject summary survey; incidence and time to dose increases in background DMARD and/or steroid therapy; institution of new DMARD therapy for lack of clinical response; rheumatoid factor (RF); and morning stiffness.
Adverse events were summarized by frequency, percentage, as well as the rate per 100 patient-years. […]

[2] = test system: patients with rheumatoid arthritis (RA); experiment: Multicenter, randomized, double-blind, placebo-controlled study of D2E7 in RA patients: safety (adverse events); assay type: in vivo, human
Procedure: as §1
D2E7 was supplied in 2-mL glass vials (the concentration of D2E7 in each vial was 25 mg/mL (ie, 40 mg/1.6 mL)), each containing 40 mg D2E7/1.6 mL solution for injection. D2E7 was manufactured and supplied by Ebewe Arzneimittel GmbH, in Unterach, Austria. McKesson, FIBOC Biosciences, in Rockville, Md., USA, packaged, labeled, stored and distributed D2E7 to the investigators at, each site for this study. […]
Adverse events were summarized by frequency, percentage, as well as the rate per 100 patient-years. […] All other efficacy variables were summarized descriptively (statistical characteristics, frequencies, percentages, confidence intervals) and analyzed by exploratory two-sided statistical tests. […]

[3] = Non-responder, full analysis set excluding Site #7, N = 315
[4] = Week 2, full analysis set excluding Site #7, N = 315
[5] = Week 4, full analysis set excluding Site #7, N = 315
[6] = Week 8, full analysis set excluding Site #7, N = 315
[7] = Week 12, full analysis set excluding Site #7, N = 315
[8] = Week 16, full analysis set excluding Site #7, N = 315
[9] = Week 20, full analysis set excluding Site #7, N = 315
[10] = Week 24, full analysis set excluding Site #7, N = 315
[11] = Week 24, subgroup Three or more DMARDs
[12] = Week 24, subgroup concomitant Antimalarial
[13] = Week 24, subgroup concomitant Leflunomide
[14] = Week 24, subgroup concomitant Methotrexate
[15] = Week 24, subgroup concomitant Sulfasalazine
[16] = added to existing DMARD therapies

## D2E7: recombinant, neutralizing human anti-hTNFα antibody; VL region SEQ ID NO: 1, VH region SEQ ID NO: 2
[1]; LOCF Week 24, N = 315
  ACR50 response, % of patients responding: (30.2) %
  ACR50 response, N of patients responding: 95
  ACR70 response, % of patients responding: (15.2) %
  ACR70 response, N of patients responding: 48
  ACR-N Mean ± SD: 21.2 ± 55.3
[1]; [3]
  Time to response ACR20: % of patients, Non-responder: (19.4) %
  Time to response ACR20: N of patients, Non-responder: 61
  Time to response ACR50: % of patients, Non-responder: (50.8) %
  Time to response ACR50: N of patients, Non-responder: 160
  Time to response ACR70: % of patients, Non-responder: (73.3) %
  Time to response ACR70: N of patients, Non-responder: 231
[1]; [4]
  Time to response ACR20: % of patients responding for the first time: (33.7) %
  Time to response ACR20: N of patients responding for the first time: 106
  Time to response ACR50: % of patients responding for the first time: (9.8) %
  Time to response ACR50: N of patients responding for the first time: 31
  Time to response ACR70: % of patients responding for the first time: (2.9) %
  Time to response ACR70: N of patients responding for the first time: 9
[1]; [5]
  Time to response ACR20: % of patients responding for the first time: (16.2) %
  Time to response ACR20: N of patients responding for the first time: 51
  Time to response ACR50: % of patients responding for the first time: (9.8) %
  Time to response ACR50: N of patients responding for the first time: 31
  Time to response ACR70: % of patients responding for the first time: (3.8) %
  Time to response ACR70: N of patients responding for the first time: 12
[1]; [6]
  Time to response ACR20: % of patients responding for the first time: (16.5) %
  Time to response ACR20: N of patients responding for the first time: 52
  Time to response ACR50: % of patients responding for the first time: (10.8) %
  Time to response ACR50: N of patients responding for the first time: 34
  Time to response ACR70: % of patients responding for the first time: (3.8) %
  Time to response ACR70: N of patients responding for the first time: 12
[1]; [7]
  Time to response ACR20: % of patients responding for the first time: (5.4) %
  Time to response ACR20: N of patients responding for the first time: 17
  Time to response ACR50: % of patients responding for the first time: (6.3) %
  Time to response ACR50: N of patients responding for the first time: 20
  Time to response ACR70: % of patients responding for the first time: (5.7) %
  Time to response ACR70: N of patients responding for the first time: 18
[1]; [8]
  Time to response ACR20: % of patients responding for the first time: (4.1) %
  Time to response ACR20: N of patients responding for the first time: 13
  Time to response ACR50: % of patients responding for the first time: (6.3) %
  Time to response ACR50: N of patients responding for the first time: 20
  Time to response ACR70: % of patients responding for the first time: (5.7) %
  Time to response ACR70: N of patients responding for the first time: 18
[1]; [9]
  Time to response ACR20: % of patients responding for the first time: (3.8) %
  Time to response ACR20: N of patients responding for the first time: 12
  Time to response ACR50: % of patients responding for the first time: (2.9) %
  Time to response ACR50: N of patients responding for the first time: 9
  Time to response ACR70: % of patients responding for the first time: (2.2) %
  Time to response ACR70: N of patients responding for the first time: 7
[1]; Week 24, 40 mg sc every other week added to current anti-rheumatic therapies, N = 315
  ACR20 response, % of patients: 53.0%
[1]; Week 24, 40 mg sc every other week, N = 315
  ACR20 response, N of patients: 167
[1]; Week 24, N = 315
  ACR50 response, N of patients responding: 92
  ACR70 response, N of patients responding: 47
  ACR-N Mean ± SD: 20.3 ± 55.2
[1]; [10]
  Time to response ACR20: % of patients responding for the first time: (1.0) %
  Time to response ACR20: N of patients responding for the first time: 3
  Time to response ACR50: % of patients responding for the first time: (3.2) %
  Time to response ACR50: N of patients responding for the first time: 10
  Time to response ACR70: % of patients responding for the first time: (2.5) %
  Time to response ACR70: N of patients responding for the first time: 8
[1]; Week 24, subgroup No DMARD
  ACR20 % Response: 50.0%
  ACR50 %: 27.8%
  ACR70 %: 18.5%
  ACR-N Mean ± SD: 12.8 ± 68.2
[1]; Week 24, subgroup One DMARD
  ACR20 % Response: 55.4%
  ACR50 %: 31.0%
  ACR70 %: 16.3%
  ACR-N Mean ± SD: 22.8 ± 56.0
[1]; Week 24, subgroup Other DMARDs
  ACR20 % Response: 52.0%
  ACR50 %: 24.0%
  ACR70 %: 16.0%
  ACR-N Mean ± SD: 25.3 ± 33.9
[1]; [11]
  ACR20 % Response: 45.5%
  ACR50 %: 18.2%
  ACR70 %: 9.1%
  ACR-N Mean ± SD: 20.1 ± 37.2
[1]; Week 24, subgroup Two DMARDs
  ACR20 % Response: 50.0%
  ACR50 %: 27.3%
  ACR70 %: 9.1%
  ACR-N Mean ± SD: 19.5 ± 42.3
[1]; [12]
  ACR20 % Response: 50.7%
  ACR50 %: 29.3%
  ACR70 %: 12.0%
  ACR-N Mean ± SD: 20.0 ± 45.5
[1]; [13]
  ACR20 % Response: 33.3%
  ACR50 %: 14.3%
  ACR70 %: 0.0%
  ACR-N Mean ± SD: −0.5 ± 77.5
[1]; [14]
  ACR20 % Response: 56.7%
  ACR50 %: 30.9%
  ACR70 %: 15.2%
  ACR-N Mean ± SD: 26.5 ± 42.3
[1]; [15]
  ACR20 % Response: 58.6%
  ACR50 %: 34.5%
  ACR70 %: 17.2%
  ACR-N Mean ± SD: 21.4 ± 53.9
[1]; concomitant methotrexate, antimalarial treatments, sulfasalazine, other DMARDs, or 0, 1, 2, or ≧3 DMARDs, vs placebo
  Subgroup analyses: ACR20, ACR50, ACR70, ACR-N and their AUC: greater improvement
[1]; in combination with methotrexate, antimalarial treatments, sulfasalazine, other DMARDs, or 0, 1, 2, or ≧3 DMARDs
  Response compared to placebo: higher response compared to placebo
[1]; patients inadequately treated with existing DMARD therapies
  Improvement in RA: significant improvement in RA
[1]; vs placebo
  Time to response and AUC for ACR20, ACR50, ACR70; AUC for ACR-N; Euro-QoL, RF, MAF scale: improvement in therapeutic response over placebo
[2]; 40 mg, alone or in combination with other DMARDs
  Safety: safe
[2]; [16]
  Incidence or profile of adverse events: not associated with any major changes in the incidence or profile of adverse events
  Tolerability: generally well-tolerated
